Results: patent US20090098072A1, “ANTIOXIDANTS” (priority 2006, published 2009)

Test: Photoconversion test (absorption at 300 nm after solar simulator irradiation)
Format: physicochemical
Experimental: A 4% solution of the substance in isopropyl myristate is prepared. In each case, 40 μl of the solution are applied to the roughened surface of 2 acrylic glass plates (7.2×2.5 cm). One plate is subsequently irradiated in a solar simulator (Atlas CPS+) for 1 h 50 min with cooling. The sample is subsequently transferred into a 50 ml measuring cylinder and covered with 40 ml of isopropanol for extraction in the ultrasound bath. The sample volume is subsequently made up to precisely 50 ml, and the absorption is measured at 300 nm. An unirradiated batch treated analogously serves as comparison. The absorption can be increased by 22% from 0.094 (dark batch) to 0.115 by the irradiation step.

For Cc1ccc(CC2C(=O)C3(C)CCC2C3(C)C)cc1 (stereo not drawn) [Example 1, 1,7,7-trimethyl-3-(4-methylbenzyl)-bicyclo-[2.2.1]heptan-2-one], the “absorption at 300 nm, unirradiated (dark batch)” value (4% solution in isopropyl myristate, 40 μl on acrylic glass plate, extracted with isopropanol to 50 ml, not irradiated) was 0.094, the “absorption at 300 nm after irradiation” value (4% solution in isopropyl myristate, 40 μl on acrylic glass plate, solar simulator (Atlas CPS+) 1 h 50 min, extracted with isopropanol to 50 ml) was 0.115 and the “increase of absorption at 300 nm by the irradiation step” value (irradiated 1 h 50 min vs dark batch) was 22%.
